Reference: PubChem BioAssay AID1918945 (Molecular Pharmacology Branch, DTP, NCI, 2023)

Tested on: 883617-216-R-J1-PDC complex spheroid viability
Test: Anticancer human tumor 883617-216-R-J1-PDC patient-derived bladder carcinoma cell line growth inhibition
Settings: for IC50: curve of first compound; for viability, T/C: stronger effect = lower value
Summary of the method: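 Complex spheroids of tumor cells with HUVEC and human MSCs, exposed to iadademstat combined with other agents. Each agent tested in half-log steps from near clinical Cmax (else 10 microM top), DMSO ≤0.25%.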

[1] = second compound 0.1 µM, first compound 0.0316 µM
[2] = second compound 0.1 µM, first compound 0.1 µM
[3] = second compound 0.1 µM, first compound 0.316 µM
[4] = second compound 0.1 µM, first compound 1 µM
[5] = second compound 0.1 µM, first compound 3.16 µM
[6] = second compound 0.1 µM, first compound 10 µM
[7] = second compound 0.316 µM, first compound 0.0316 µM
[8] = second compound 0.316 µM, first compound 0.1 µM
[9] = second compound 0.316 µM, first compound 0.316 µM
[10] = second compound 0.316 µM, first compound 1 µM
[11] = second compound 0.316 µM, first compound 3.16 µM
[12] = second compound 0.316 µM, first compound 10 µM
[13] = second compound 1 µM, first compound 0.0316 µM
[14] = second compound 1 µM, first compound 0.1 µM
[15] = second compound 1 µM, first compound 0.316 µM
[16] = second compound 1 µM, first compound 1 µM
[17] = second compound 1 µM, first compound 3.16 µM
[18] = second compound 1 µM, first compound 10 µM
[19] = second compound 3.16 µM, first compound 0.0316 µM
[20] = second compound 3.16 µM, first compound 0.1 µM
[21] = second compound 3.16 µM, first compound 0.316 µM
[22] = second compound 3.16 µM, first compound 1 µM
[23] = second compound 3.16 µM, first compound 3.16 µM
[24] = second compound 3.16 µM, first compound 10 µM
[25] = second compound 10 µM, first compound 0.0316 µM
[26] = second compound 10 µM, first compound 0.1 µM
[27] = second compound 10 µM, first compound 0.316 µM
[28] = second compound 10 µM, first compound 1 µM
[29] = second compound 10 µM, first compound 3.16 µM
[30] = second compound 10 µM, first compound 10 µM
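Further: exposure lasted seven days after three days of spheroid growth.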
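Wherever viability, T/C is given: 100% = DMSO vehicle control luminescence.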

Q: `CC1(C)CCC(CN2CCN(c3ccc(C(=O)NS(=O)(=O)c4ccc(NCC5CCOCC5)c([N+](=O)[O-])c4)c(Oc4cnc5[nH]ccc5c4)c3)CC2)=C(c2ccc(Cl)cc2)C1` + NC1CCC(NC2CC2c2ccccc2)CC1 was tested. Which IC50 (second compound 0.1 µM) did it give?
A: The IC50 was 7.33 µM.

Q: What about the IC50 (second compound 0.316 µM) of the same compound?
A: Its IC50 is 7.54 µM.

Q: And the IC50 (second compound 1 µM)?
A: Its IC50 is 7.34 µM.

Q: And the IC50 (second compound 3.16 µM)?
A: Its IC50 is 7.34 µM.

Q: And the IC50 (second compound 10 µM)?
A: The IC50 was 7.1 µM.

Q: What about the viability, T/C [1] of the same compound?
A: Its viability, T/C is 108%.

Q: And the viability, T/C [2]?
A: Its viability, T/C is 114%.

Q: What about the viability, T/C [3] of the same compound?
A: Its viability, T/C is 109%.

Q: And the viability, T/C [4]?
A: Its viability, T/C is 104%.

Q: What about the viability, T/C [5] of the same compound?
A: Its viability, T/C is 109%.

Q: And the viability, T/C [6]?
A: The viability, T/C was 28.3%.

Q: And the viability, T/C [7]?
A: The viability, T/C was 111%.

Q: And the viability, T/C [8]?
A: The viability, T/C was 106%.

Q: What about the viability, T/C [9] of the same compound?
A: The viability, T/C was 122%.

Q: And the viability, T/C [10]?
A: Its viability, T/C is 109%.

Q: What about the viability, T/C [11] of the same compound?
A: Its viability, T/C is 125%.

Q: And the viability, T/C [12]?
A: Its viability, T/C is 28.9%.

Q: What about the viability, T/C [13] of the same compound?
A: The viability, T/C was 105%.

Q: And the viability, T/C [14]?
A: The viability, T/C was 110%.

Q: And the viability, T/C [15]?
A: Its viability, T/C is 118%.

Q: And the viability, T/C [16]?
A: Its viability, T/C is 110%.

Q: What about the viability, T/C [17] of the same compound?
A: Its viability, T/C is 113%.

Q: What about the viability, T/C [18] of the same compound?
A: The viability, T/C was 27.4%.

Q: What about the viability, T/C [19] of the same compound?
A: Its viability, T/C is 104%.

Q: And the viability, T/C [20]?
A: Its viability, T/C is 114%.

Q: What about the viability, T/C [21] of the same compound?
A: Its viability, T/C is 110%.

Q: And the viability, T/C [22]?
A: Its viability, T/C is 114%.

Q: And the viability, T/C [23]?
A: Its viability, T/C is 120%.

Q: And the viability, T/C [24]?
A: Its viability, T/C is 27%.

Q: And the viability, T/C [25]?
A: The viability, T/C was 107%.

Q: And the viability, T/C [26]?
A: The viability, T/C was 102%.

Q: And the viability, T/C [27]?
A: The viability, T/C was 108%.

Q: And the viability, T/C [28]?
A: Its viability, T/C is 110%.

Q: What about the viability, T/C [29] of the same compound?
A: The viability, T/C was 118%.

Q: What about the viability, T/C [30] of the same compound?
A: Its viability, T/C is 24.8%.

Q: `CC1COCCN1c1cc(C2(S(C)(=N)=O)CC2)nc(-c2ccnc3[nH]ccc23)n1` (stereo not given) + NC1CCC(NC2CC2c2ccccc2)CC1 was tested. Which IC50 (second compound 0.1 µM) did it give?
A: The IC50 was 1.05 µM.

Q: What about the IC50 (second compound 0.316 µM) of the same compound?
A: Its IC50 is 1.13 µM.

Q: And the IC50 (second compound 1 µM)?
A: The IC50 was 1.08 µM.

Q: And the IC50 (second compound 3.16 µM)?
A: The IC50 was 1.35 µM.

Q: And the IC50 (second compound 10 µM)?
A: The IC50 was 1.52 µM.

Q: And the viability, T/C [1]?
A: Its viability, T/C is 106%.

Q: What about the viability, T/C [2] of the same compound?
A: Its viability, T/C is 103%.

Q: And the viability, T/C [3]?
A: The viability, T/C was 78.9%.

Q: What about the viability, T/C [4] of the same compound?
A: The viability, T/C was 50.2%.

Q: What about the viability, T/C [5] of the same compound?
A: Its viability, T/C is 43.9%.

Q: What about the viability, T/C [6] of the same compound?
A: The viability, T/C was 36.9%.

Q: And the viability, T/C [7]?
A: The viability, T/C was 99.9%.

Q: And the viability, T/C [8]?
A: The viability, T/C was 101%.

Q: And the viability, T/C [9]?
A: Its viability, T/C is 77.7%.

Q: What about the viability, T/C [10] of the same compound?
A: Its viability, T/C is 51.8%.

Q: And the viability, T/C [11]?
A: The viability, T/C was 39.7%.

Q: And the viability, T/C [12]?
A: Its viability, T/C is 33%.

Q: And the viability, T/C [13]?
A: Its viability, T/C is 101%.

Q: What about the viability, T/C [14] of the same compound?
A: Its viability, T/C is 101%.

Q: And the viability, T/C [15]?
A: The viability, T/C was 70.8%.

Q: And the viability, T/C [16]?
A: The viability, T/C was 53.7%.

Q: And the viability, T/C [17]?
A: The viability, T/C was 39%.

Q: And the viability, T/C [18]?
A: Its viability, T/C is 34.5%.

Q: And the viability, T/C [19]?
A: The viability, T/C was 100%.

Q: And the viability, T/C [20]?
A: The viability, T/C was 93%.

Q: What about the viability, T/C [21] of the same compound?
A: The viability, T/C was 75.4%.

Q: And the viability, T/C [22]?
A: Its viability, T/C is 52.9%.

Q: What about the viability, T/C [23] of the same compound?
A: Its viability, T/C is 40.6%.

Q: And the viability, T/C [24]?
A: Its viability, T/C is 31.5%.

Q: What about the viability, T/C [25] of the same compound?
A: The viability, T/C was 106%.

Q: What about the viability, T/C [26] of the same compound?
A: Its viability, T/C is 92.7%.

Q: And the viability, T/C [27]?
A: Its viability, T/C is 78.8%.

Q: What about the viability, T/C [28] of the same compound?
A: The viability, T/C was 52%.

Q: And the viability, T/C [29]?
A: Its viability, T/C is 43.8%.

Q: And the viability, T/C [30]?
A: The viability, T/C was 34.9%.
